Data published in PMC7822861, “A functional family of fluorescent nucleotide analogues to investigate actin dynamics and energetics” (Nature Communications, 2021).

Target: T1, actin (G-actin, rabbit muscle) (Oryctolagus cuniculus, UniProt P68135)
T1 construct: gene ACTA1; rabbit muscle actin monomer; with mouse twinfilin C-terminal ADF-H domain (residues 176–316), in the crystal only
Assay: co-crystal structure ([…] Å); fluorescence anisotropy association/dissociation kinetics
Format: binding

k-: ~ (1 ± 0.4) × 10^−3 (k−) s^−1
Substance: ATP-ATTO-488
